This is an account of results in patent publication US10004732B2 (Novartis AG, priority 2014, dated 2018).

The nature of series [1]: Microsomal clearance assay (M). The note with it: intrinsic clearance in rat liver microsomes.
Description: The experiments were performed in 96-well glass plates at 37° C. on an automated Tecan EVO platform. Test compounds at a concentration of 10 mM in pure DMSO were diluted 1:1000 in water to 10 μM. […] Reactions were initiated by the addition of 150 μL of a cofactor solution containing 2 mM NADPH.
The next series deals with mTOR (Homo sapiens, UniProt P42345). Nature of the series: Lanthascreen kinase binding assay, assay G. The note with it: read-out: Assay G mTOR IC50. Background: Time-resolved FRET reads energy transfer from a long-lived donor to a nearby acceptor.
The target of series [2] is T1, PI 3-kinase alpha (Homo sapiens, UniProt P42336). Put plainly: Cellular assay H1, p-Akt (S473) in Rat-1 cells, Surefire format. Type of series: cell-based. The note with it: non-asterisked data: version H1 (Surefire format), Rat-1 cells; read-out: Assay H PI3Kα IC50.
Target sequence in this assay (P42336 whole entry): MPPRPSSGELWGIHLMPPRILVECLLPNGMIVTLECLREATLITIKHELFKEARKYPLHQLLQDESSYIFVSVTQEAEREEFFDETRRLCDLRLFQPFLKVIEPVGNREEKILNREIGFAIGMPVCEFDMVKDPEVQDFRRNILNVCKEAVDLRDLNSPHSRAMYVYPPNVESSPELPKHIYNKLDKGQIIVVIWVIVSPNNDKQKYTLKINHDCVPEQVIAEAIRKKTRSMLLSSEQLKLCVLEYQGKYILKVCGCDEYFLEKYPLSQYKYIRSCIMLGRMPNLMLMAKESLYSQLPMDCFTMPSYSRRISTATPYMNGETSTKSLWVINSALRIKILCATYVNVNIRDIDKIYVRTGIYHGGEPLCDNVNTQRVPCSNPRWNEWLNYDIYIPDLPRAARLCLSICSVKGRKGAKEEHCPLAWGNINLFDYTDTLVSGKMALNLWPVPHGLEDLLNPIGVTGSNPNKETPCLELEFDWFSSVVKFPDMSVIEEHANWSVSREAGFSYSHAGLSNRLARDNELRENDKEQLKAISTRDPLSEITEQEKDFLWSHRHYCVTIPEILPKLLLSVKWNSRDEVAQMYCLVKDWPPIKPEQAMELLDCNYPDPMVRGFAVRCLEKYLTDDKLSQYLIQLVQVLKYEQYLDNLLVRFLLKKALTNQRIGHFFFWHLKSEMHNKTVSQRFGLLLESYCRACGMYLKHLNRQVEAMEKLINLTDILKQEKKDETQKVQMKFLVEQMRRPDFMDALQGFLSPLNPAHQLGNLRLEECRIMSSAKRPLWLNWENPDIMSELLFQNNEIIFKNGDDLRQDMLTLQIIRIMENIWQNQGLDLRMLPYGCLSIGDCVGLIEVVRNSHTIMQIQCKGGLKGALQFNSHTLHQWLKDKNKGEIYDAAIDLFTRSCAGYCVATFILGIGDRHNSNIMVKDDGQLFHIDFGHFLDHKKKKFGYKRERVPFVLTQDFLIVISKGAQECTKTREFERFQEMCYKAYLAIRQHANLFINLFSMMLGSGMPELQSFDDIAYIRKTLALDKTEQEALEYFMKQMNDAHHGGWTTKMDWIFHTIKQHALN
Target sequence in this assay (Q63787 whole entry partner): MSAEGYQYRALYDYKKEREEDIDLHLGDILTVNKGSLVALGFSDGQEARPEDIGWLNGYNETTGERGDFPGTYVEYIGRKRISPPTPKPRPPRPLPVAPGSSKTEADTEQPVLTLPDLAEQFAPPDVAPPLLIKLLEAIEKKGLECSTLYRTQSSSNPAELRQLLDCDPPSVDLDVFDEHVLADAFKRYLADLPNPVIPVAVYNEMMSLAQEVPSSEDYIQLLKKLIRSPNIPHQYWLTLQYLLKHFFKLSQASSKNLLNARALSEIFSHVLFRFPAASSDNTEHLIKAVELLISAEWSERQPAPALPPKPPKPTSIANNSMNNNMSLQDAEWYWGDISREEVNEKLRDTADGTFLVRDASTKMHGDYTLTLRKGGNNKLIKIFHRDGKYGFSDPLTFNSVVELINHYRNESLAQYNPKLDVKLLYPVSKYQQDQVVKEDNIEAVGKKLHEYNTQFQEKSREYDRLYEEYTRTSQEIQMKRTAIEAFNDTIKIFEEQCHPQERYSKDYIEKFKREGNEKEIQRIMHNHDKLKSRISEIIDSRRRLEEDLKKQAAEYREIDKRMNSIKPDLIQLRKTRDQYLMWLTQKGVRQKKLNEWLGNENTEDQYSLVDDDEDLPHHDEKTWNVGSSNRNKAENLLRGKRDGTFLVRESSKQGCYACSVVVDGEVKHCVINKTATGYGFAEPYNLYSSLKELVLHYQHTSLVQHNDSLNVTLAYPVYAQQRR
Series [3] concerns the target T2, PI 3-kinase delta (Homo sapiens, UniProt O00329). Nature of the series: TR-FRET Adapta assay, assay F. The settings on record: read-out: Assay F PI3Kδ IC50.
Series [4] has as its target T3, PI 3-kinase beta (Homo sapiens, UniProt P42338). Put plainly: Kinase Glo Luminescent Kinase Assay (Kglo), assay B. Type of series: biochemical. The note with it: read-out: Assay B PI3Kβ IC50. Background: Kinase-Glo reads ATP consumption through a luciferase reaction.
Target sequence in this assay (P42338 whole entry): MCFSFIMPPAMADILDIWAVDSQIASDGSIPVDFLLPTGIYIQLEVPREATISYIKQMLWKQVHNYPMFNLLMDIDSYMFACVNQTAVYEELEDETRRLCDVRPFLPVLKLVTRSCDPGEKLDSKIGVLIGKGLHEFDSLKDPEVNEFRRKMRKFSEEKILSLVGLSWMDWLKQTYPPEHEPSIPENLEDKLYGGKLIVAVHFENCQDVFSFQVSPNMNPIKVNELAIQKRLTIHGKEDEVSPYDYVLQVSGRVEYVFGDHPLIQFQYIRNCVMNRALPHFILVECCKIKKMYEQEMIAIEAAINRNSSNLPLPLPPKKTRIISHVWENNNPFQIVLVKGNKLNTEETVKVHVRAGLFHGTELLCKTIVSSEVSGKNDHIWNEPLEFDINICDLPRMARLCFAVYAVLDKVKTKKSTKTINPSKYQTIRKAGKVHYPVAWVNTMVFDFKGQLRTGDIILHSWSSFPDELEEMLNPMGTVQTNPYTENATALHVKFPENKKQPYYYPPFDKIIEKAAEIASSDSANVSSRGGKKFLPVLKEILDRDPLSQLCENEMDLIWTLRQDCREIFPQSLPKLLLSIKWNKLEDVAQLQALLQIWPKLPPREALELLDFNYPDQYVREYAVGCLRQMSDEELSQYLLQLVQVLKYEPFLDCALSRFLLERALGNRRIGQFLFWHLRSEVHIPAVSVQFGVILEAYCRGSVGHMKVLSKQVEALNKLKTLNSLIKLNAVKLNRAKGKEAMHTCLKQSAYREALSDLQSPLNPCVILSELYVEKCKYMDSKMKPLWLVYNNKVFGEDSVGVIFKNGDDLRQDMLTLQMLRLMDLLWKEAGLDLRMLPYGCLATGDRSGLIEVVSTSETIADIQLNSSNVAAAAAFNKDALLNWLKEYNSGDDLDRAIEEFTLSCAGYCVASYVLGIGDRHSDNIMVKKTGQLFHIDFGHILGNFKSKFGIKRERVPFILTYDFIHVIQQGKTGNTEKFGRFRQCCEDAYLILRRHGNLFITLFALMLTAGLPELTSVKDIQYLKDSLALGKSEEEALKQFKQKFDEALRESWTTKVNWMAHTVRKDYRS
Target sequence in this assay (P27986 461-568 partner): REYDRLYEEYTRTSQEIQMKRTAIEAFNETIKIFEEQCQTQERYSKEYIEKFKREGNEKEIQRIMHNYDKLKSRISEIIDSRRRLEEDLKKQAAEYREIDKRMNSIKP
For another series, the target named is Vps34 (Homo sapiens, UniProt Q8NEB9). Put plainly: Kinase Glo Luminescent Kinase Assay (Kglo), assay C. Type of series: biochemical. The note with it: read-out: Assay C VPS34 IC50.
Vps34, sequence (Q8NEB9 whole entry, species assumed): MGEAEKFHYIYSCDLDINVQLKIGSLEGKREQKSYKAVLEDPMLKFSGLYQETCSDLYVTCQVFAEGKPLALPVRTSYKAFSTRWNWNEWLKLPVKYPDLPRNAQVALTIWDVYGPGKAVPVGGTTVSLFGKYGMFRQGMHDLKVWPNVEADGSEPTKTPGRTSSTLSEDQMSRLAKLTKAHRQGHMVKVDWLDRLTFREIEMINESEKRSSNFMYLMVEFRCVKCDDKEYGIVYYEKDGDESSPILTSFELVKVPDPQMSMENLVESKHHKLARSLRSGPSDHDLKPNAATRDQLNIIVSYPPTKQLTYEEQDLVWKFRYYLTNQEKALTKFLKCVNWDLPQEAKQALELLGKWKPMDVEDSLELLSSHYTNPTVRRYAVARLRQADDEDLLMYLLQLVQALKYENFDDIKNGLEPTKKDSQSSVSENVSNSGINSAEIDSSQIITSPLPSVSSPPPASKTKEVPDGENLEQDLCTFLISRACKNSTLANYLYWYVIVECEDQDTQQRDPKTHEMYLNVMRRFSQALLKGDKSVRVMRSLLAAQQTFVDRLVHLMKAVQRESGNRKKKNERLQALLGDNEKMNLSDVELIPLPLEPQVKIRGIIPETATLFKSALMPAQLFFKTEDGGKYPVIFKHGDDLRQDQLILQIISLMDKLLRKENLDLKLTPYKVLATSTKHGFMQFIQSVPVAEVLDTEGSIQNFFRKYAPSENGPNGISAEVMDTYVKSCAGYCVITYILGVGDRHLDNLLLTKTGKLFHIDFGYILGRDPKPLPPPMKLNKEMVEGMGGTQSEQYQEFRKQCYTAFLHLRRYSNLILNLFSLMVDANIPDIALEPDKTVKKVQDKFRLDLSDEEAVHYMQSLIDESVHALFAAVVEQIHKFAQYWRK
The target of series [5] is T1, PI 3-kinase alpha. Nature of the series: Kinase Glo Luminescent Kinase Assay (Kglo), assay A. Type of series: biochemical. The note with it: read-out: Assay A PI3Kα IC50.
Target sequence in this assay (P42336 whole entry): as the sequence (P42336 whole entry) above
The target in series [6] is T3, PI 3-kinase beta. Put plainly: Cellular assay I1, p-Akt (S473) in Rat-1 cells, Surefire format. The series is classed as cell-based. The settings on record: non-asterisked data: version I1 (Surefire format), Rat-1 cells; read-out: Assay I PI3Kβ IC50.
Target sequence in this assay (P42338 whole entry): as the sequence (P42338 whole entry) above
Target sequence in this assay (Q63787 whole entry partner): as the sequence (Q63787 whole entry partner) above
The target in series [7] is T4, PI 3-kinase gamma (Homo sapiens, UniProt P48736). Nature of the series: Cellular U937 AKT assay K1 (MSD). The series is classed as cell-based. The note with it: U937 cells, K1 format; read-out: Assay K1 PI3Kγ IC50.
For series [8], the target named is T2, PI 3-kinase delta. Nature of the series: Cellular assay J1, p-Akt (S473) in Rat-1 cells, Surefire format. The series is classed as cell-based. The note with it: non-asterisked data: version J1 (Surefire format), Rat-1 cells; read-out: Assay J PI3Kδ IC50.
Target sequence in this assay (O00329 whole entry): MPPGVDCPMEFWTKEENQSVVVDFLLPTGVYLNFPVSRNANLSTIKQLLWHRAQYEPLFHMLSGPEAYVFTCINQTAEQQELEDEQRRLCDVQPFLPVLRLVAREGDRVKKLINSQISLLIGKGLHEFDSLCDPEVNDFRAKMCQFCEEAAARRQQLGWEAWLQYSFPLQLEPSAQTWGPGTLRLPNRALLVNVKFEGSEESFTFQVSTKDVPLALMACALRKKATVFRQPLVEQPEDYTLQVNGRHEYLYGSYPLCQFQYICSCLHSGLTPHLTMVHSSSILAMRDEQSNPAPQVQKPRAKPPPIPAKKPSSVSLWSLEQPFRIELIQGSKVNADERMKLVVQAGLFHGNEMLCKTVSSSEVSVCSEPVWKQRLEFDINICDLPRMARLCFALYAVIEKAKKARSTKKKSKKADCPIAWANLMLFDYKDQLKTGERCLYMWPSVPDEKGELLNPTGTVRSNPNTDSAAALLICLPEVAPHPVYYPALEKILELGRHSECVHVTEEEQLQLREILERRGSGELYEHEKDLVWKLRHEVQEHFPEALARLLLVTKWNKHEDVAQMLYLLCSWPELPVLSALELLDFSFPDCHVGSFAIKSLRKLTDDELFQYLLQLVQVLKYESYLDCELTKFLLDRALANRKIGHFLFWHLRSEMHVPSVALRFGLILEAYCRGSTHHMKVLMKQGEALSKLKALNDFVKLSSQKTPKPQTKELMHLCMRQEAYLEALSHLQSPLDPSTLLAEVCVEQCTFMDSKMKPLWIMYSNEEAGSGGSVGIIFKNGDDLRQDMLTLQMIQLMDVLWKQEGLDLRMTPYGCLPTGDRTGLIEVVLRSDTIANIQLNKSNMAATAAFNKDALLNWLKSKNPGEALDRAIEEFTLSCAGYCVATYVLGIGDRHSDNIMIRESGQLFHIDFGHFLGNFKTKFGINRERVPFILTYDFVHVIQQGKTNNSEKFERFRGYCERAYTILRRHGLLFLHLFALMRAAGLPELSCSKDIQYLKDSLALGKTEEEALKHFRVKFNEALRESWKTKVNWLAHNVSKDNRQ
Target sequence in this assay (Q63787 whole entry partner): as the sequence (Q63787 whole entry partner) above
In series [9] the target is T4, PI 3-kinase gamma. Put plainly: TR-FRET Adapta assay, assay E. Type of series: biochemical. The note with it: read-out: Assay E PI3Kγ IC50.
The next series concerns the target PI 4-kinase beta (Homo sapiens, UniProt Q9UBF8). Put plainly: Kinase Glo Luminescent Kinase Assay (Kglo), assay D. The note with it: read-out: Assay D PI4Kβ IC50. The series is classed as biochemical.

Where a name gives a salt, the structure may show the parent alone.

Description for mTOR: Lanthascreen™ Kinase Binding Assay for mTOR (G)
Binding of an inhibitor to the kinase competes for binding with the tracer, resulting in a loss of FRET.
50 nL of compound dilutions were dispensed onto white 384-well small volume polystyrene plate.

Consider `COc1cc(-c2nc(-c3cc(S(=O)(=O)NCCC(C)(C)O)ccc3C)cnc2N)ccn1` [Example 119.3], for which, in series [1], the “Assay M RLM CI(int)” value was 81 µL/min/mg. The IC50 (commonly the concentration that gives 50% inhibition) at mTOR was 3700 nM; on PI 3-kinase alpha [2] it was 490 nM; on PI 3-kinase delta [3], 130 nM; on PI 3-kinase beta [4], 7490 nM; on Vps34, greater than 9100 nM; at PI 3-kinase alpha [5], 90 nM. The concentration for half-maximal inhibition (IC50) at PI 3-kinase beta [6] turned out to be 1770 nM; on PI 3-kinase gamma [7], 3640 nM; at PI 3-kinase delta [8], 870 nM; at PI 3-kinase gamma [9], 44 nM; at PI 4-kinase beta, 7460 nM.

With `Cc1ncc(-c2nc(-c3cc(S(=O)(=O)NC4CC(O)C4)ccc3C)cnc2N)s1` (mixture of isomers) [Example 43, 3-(5-Amino-6-(2-methylthiazol-5-yl)pyrazin-2-yl)-N-(3-hydroxycyclobutyl)-4-methylbenzenesulfonamide], in series [1], the “Assay M RLM CI(int)” value was found to be 55 µL/min/mg. Moreover, the half-inhibitory concentration (IC50) on PI 3-kinase alpha [2] was 1390 nM; on PI 3-kinase delta [3] it was 220 nM; at PI 3-kinase beta [4], 200 nM; at Vps34 it was 900 nM; on PI 3-kinase alpha [5] it was 50 nM; on PI 3-kinase beta [6], greater than 10000 nM. Moreover, the IC50 turned out to be 15 nM at PI 3-kinase gamma [7], 1190 nM at PI 3-kinase delta [8], 6 nM at PI 3-kinase gamma [9] and 1400 nM on PI 4-kinase beta.

On to `Cc1ccc(S(=O)(=O)NC[C@H]2CCCN2)cc1-c1cnc(N)c(-c2cn(C)nc2C)n1` [Example 106, (R)-3-(5-Amino-6-(1,3-dimethyl-1H-pyrazol-4-yl)pyrazin-2-yl)-4-methyl-N-(pyrrolidin-2-ylmethyl)benzenesulfonamide hydrochloride], for which, in [1], the “Assay M RLM CI(int)” value was 29 µL/min/mg. Besides, the half-maximal inhibitory concentration (IC50) on PI 3-kinase alpha [2] is greater than 10000 nM; at PI 3-kinase delta [3], 140 nM; on PI 3-kinase beta [4], 750 nM; at Vps34, greater than 10000 nM; on PI 3-kinase alpha [5], 100 nM; on PI 3-kinase beta [6], greater than 10000 nM. Besides, the IC50 at PI 3-kinase gamma [7] was 2280 nM; on PI 3-kinase delta [8], greater than 10000 nM; on PI 3-kinase gamma [9], 25 nM; at PI 4-kinase beta it was 5600 nM.

Consider `Cc1ccc(S(=O)(=O)NCCC(C)(C)O)cc1-c1cnc(N)c(-n2ccnc2)n1` [Example 61, 3-(5-Amino-6-(1H-imidazol-1-yl)pyrazin-2-yl)-N-(3-hydroxy-3-methylbutyl)-4-methylbenzenesulfonamide], for which the “Assay M RLM CI(int)” value in [1] was found to be 56 µL/min/mg. The IC50 at mTOR is greater than 9100 nM; on PI 3-kinase alpha [2], 8970 nM; at PI 3-kinase delta [3], 5810 nM; at PI 3-kinase beta [4] it was greater than 9100 nM; at Vps34, greater than 9100 nM; on PI 3-kinase alpha [5], 5470 nM. The IC50 was greater than 10000 nM at PI 3-kinase beta [6]; 479 nM at PI 3-kinase gamma [7]; 8180 nM on PI 3-kinase delta [8]; 1820 nM on PI 3-kinase gamma [9]; greater than 9100 nM at PI 4-kinase beta.

As to `Cc1ccc(S(=O)(=O)NCCC(C)(C)O)cc1-c1cnc(N)c(-c2cccnc2Cl)n1` [Example 119.6], the 50% inhibitory concentration (IC50) at mTOR is 5610 nM; at PI 3-kinase alpha [2], 4070 nM; at PI 3-kinase delta [3] it was 380 nM; on PI 3-kinase beta [4], greater than 9100 nM; on Vps34, 7990 nM; on PI 3-kinase alpha [5], 820 nM. Further, the concentration for half-maximal inhibition (IC50) was found to be 1720 nM at PI 3-kinase beta [6]; 860 nM at PI 3-kinase gamma [7]; 2880 nM at PI 3-kinase delta [8]; 161 nM on PI 3-kinase gamma [9]; 7700 nM on PI 4-kinase beta.

For the compound `Cc1ccc(S(=O)(=O)NCCC(C)(C)O)cc1-c1cnc(N)c(-c2cnn(CCN3CCOCC3)c2)n1` [Example 119.41], the “Assay M RLM CI(int)” value in series [1] worked out at 73 µL/min/mg. Besides, the 50% inhibitory concentration (IC50) on mTOR was greater than 10000 nM; at PI 3-kinase alpha [2], greater than 10000 nM; on PI 3-kinase delta [3], 30 nM; at PI 3-kinase beta [4] it was 3250 nM; at Vps34 it was greater than 10000 nM; at PI 3-kinase alpha [5], 420 nM. Also, the IC50 was determined as 3200 nM at PI 3-kinase beta [6]; 91 nM on PI 3-kinase gamma [7]; 6490 nM on PI 3-kinase delta [8]; 25 nM at PI 3-kinase gamma [9]; 6000 nM at PI 4-kinase beta.

For the compound `Cc1ccc(S(=O)(=O)NCCC(C)(C)O)cc1-c1cnc(N)c(-c2cnn(Cc3cccnc3)c2)n1` [Example 119.38], in series [1], the “Assay M RLM CI(int)” value amounted to 167 µL/min/mg. Besides, the IC50 on mTOR is 4600 nM; on PI 3-kinase alpha [2], 6570 nM; at PI 3-kinase delta [3] it was 30 nM; at PI 3-kinase beta [4] it was 3500 nM; on Vps34 it was greater than 9100 nM; at PI 3-kinase alpha [5] it was 90 nM. For the same compound, the IC50 on PI 3-kinase beta [6] came to 2210 nM; on PI 3-kinase gamma [7], 34 nM; on PI 3-kinase delta [8] it was 1030 nM; on PI 3-kinase gamma [9] it was 12 nM; at PI 4-kinase beta it was 6300 nM.

Take `Cc1ccc(S(=O)(=O)NCCC(O)C(F)(F)F)cc1-c1cnc(N)c(-c2cnn(C)c2)n1` (stereo not drawn) [Example 51, 3-(5-Amino-6-(1-methyl-1H-pyrazol-4-yl)pyrazin-2-yl)-4-methyl-N-(4,4,4-trifluoro-3-hydroxybutyl)benzenesulfonamide]: in [1], the “Assay M RLM CI(int)” value was 55 µL/min/mg. Further, the IC50 on mTOR is greater than 9100 nM; on PI 3-kinase alpha [2], 6170 nM; on PI 3-kinase delta [3], 490 nM; at PI 3-kinase beta [4], 4190 nM; at Vps34, 7150 nM; at PI 3-kinase alpha [5], 370 nM. Besides, the IC50 on PI 3-kinase beta [6] is 6600 nM; on PI 3-kinase gamma [7], 68 nM; on PI 3-kinase delta [8] it was 3950 nM; at PI 3-kinase gamma [9] it was 42 nM; on PI 4-kinase beta it was greater than 9100 nM.

Regarding `Cc1cc(F)c(S(=O)(=O)NCCC(C)(C)O)cc1-c1cnc(N)c(-n2cncn2)n1` [Example 116, 5-(5-Amino-6-(1H-1,2,4-triazol-1-yl)pyrazin-2-yl)-2-fluoro-N-(3-hydroxy-3-methylbutyl)-4-methylbenzenesulfonamide], in series [1], the “Assay M RLM CI(int)” value was 35 µL/min/mg. In addition, the IC50 at mTOR is greater than 9100 nM; on PI 3-kinase alpha [2], 2310 nM; on PI 3-kinase delta [3] it was 300 nM; on PI 3-kinase beta [4], greater than 9100 nM; on Vps34, greater than 9100 nM; on PI 3-kinase alpha [5], 1200 nM. In addition, the IC50 at PI 3-kinase beta [6] was 4750 nM; on PI 3-kinase gamma [7], 197 nM; at PI 3-kinase delta [8] it was 2120 nM; on PI 3-kinase gamma [9] it was 28 nM; on PI 4-kinase beta, 8100 nM.

For the compound `Cc1ccc(S(=O)(=O)NCCC(C)(C)O)cc1-c1cnc(N)c(-n2cnc(C(C)C)n2)n1` [Example 66, 3-(5-Amino-6-(3-isopropyl-1H-1,2,4-triazol-1-yl)pyrazin-2-yl)-N-(3-hydroxy-3-methylbutyl)-4-methylbenzenesulfonamide], the “Assay M RLM CI(int)” value in series [1] is 311 µL/min/mg. The IC50 at mTOR is 5980 nM; at PI 3-kinase alpha [2] it was 990 nM; on PI 3-kinase delta [3], 80 nM; at PI 3-kinase beta [4], greater than 9100 nM; at Vps34 it was greater than 9100 nM; at PI 3-kinase alpha [5], 190 nM. Moreover, the IC50 at PI 3-kinase beta [6] worked out at 5920 nM; at PI 3-kinase gamma [7], 109 nM; at PI 3-kinase delta [8] it was 730 nM; on PI 3-kinase gamma [9] it was 6 nM; on PI 4-kinase beta, 7940 nM.

As for `Cc1ccc(S(=O)(=O)NCCC(C)(C)O)cc1-c1cnc(N)c(-c2cnn(Cc3ccncc3)c2)n1` [Example 119.39], the “Assay M RLM CI(int)” value in series [1] turned out to be 203 µL/min/mg. Also, the 50% inhibitory concentration (IC50) on mTOR is 6900 nM; on PI 3-kinase alpha [2], 5040 nM; at PI 3-kinase delta [3] it was 40 nM; on PI 3-kinase beta [4], 2800 nM; at Vps34 it was greater than 9100 nM; on PI 3-kinase alpha [5] it was 100 nM. The concentration for half-maximal inhibition (IC50) at PI 3-kinase beta [6] came out at 2150 nM; on PI 3-kinase gamma [7], 34 nM; on PI 3-kinase delta [8], 1610 nM; on PI 3-kinase gamma [9] it was 6 nM; at PI 4-kinase beta it was 6500 nM.
